Source: patent US9724380B2, “Method and compositions for synchronizing time of insemination in gilts” (JBS UNITED ANIMAL HEALTH II LLC, priority 2012, dated 2017)

Tests used:
Type in all cases: in vivo, swine
gilts [1] = assay: Example 5: ovulation monitored by transrectal ultrasonography after 100, 200 or 400 mcg triptorelin gel intravaginally at 120 h after MATRIX withdrawal; settings: all treatments
Procedure: (§1) All gilts were individually fed MATRIX® as a top-dress for 14 or 15 days at the recommended rate of 15 mg/gilt/day. Gilts were withdrawn from MATRIX® feeding (last top-dress in the morning on Day 0) and allocated to each of the following treatments. Controls were vehicle gel treated (vehicle gel without triptorelin) at 120 (+/−2) hours following MATRIX® withdrawal (last top dress). The other gilts were given 100, 200 or 400 mcg triptorelin as the acetate in a methylcellulose gel formulation 120 (+/−2) hours following MATRIX® withdrawal. The four treatments were: • 1. Vehicle gel (VG): vehicle gel without triptorelin at 120 (+/−2) hours after MATRIX® withdrawal. • 2. TG 100: 100 mcg (2 mL 50 mcg/mL) triptorelin gel at 120 (+/−2) hours after MATRIX® withdrawal. • 3. TG 200: 200 mcg (2 mL 100 mcg/mL) triptorelin gel at 120 (+/−2) hours after MATRIX® withdrawal. • 4. TG 400: 400 mcg (2 mL 200 mcg/mL) triptorelin gel at 120 (+/−2) hours after MATRIX® withdrawal.
(§2) Triptorelin (pGlu-His-Trp-Ser-Tyr-D-Trp-Leu-Arg-Pro-Gly-NH2) was supplied in the acetate form, from Bachem, Torrance, Calif. (Item H-4075 CGMP grade). Triptorelin gel (100-400 mcg/2 mL dose) was formulated by Argenta (Auckland, NZ) in a gel composed of Methocel Premium A4000 (Dow Chemical), citrate buffer (pH 5.5), NaCl, methionine, and methyl and propyl parabens. Fifty-four milliliters of triptorelin gel (100 mcg triptorelin acetate/mL) was packaged in Amber Borosilicate Glass Serum Vials (610206-50) with a Gray Butyl Pharmaceutical Serum Vial Stopper (73828A-SS) with a Standard Aluminum Seal (SAS20NAT). […] MATRIX® was supplied as the US commercially available form.
Ovulation was monitored twice on Day 5 (8 hours and 16 hours post-treatment) and every 8 hours on Day 6 and Day 7 or until ovulation was confirmed or 176 hours following last MATRIX® feeding. The ovulatory status of all gilts was monitored by transrectal ultrasonography. An Aloka 500 ultrasound machine is used for this purpose, with a 7.5 MHz linear array transducer attached to a fixed-angle PVC stabilizing rod to facilitate insertion into the rectum. The transducer and PVC rod are coated with a gynecological lubricant and gently inserted into the rectum until the ovaries can be visualized, one at a time. The diameters of the three largest follicles were recorded (to the nearest 0.1 mm) at each scanning. A gilt was declared to have ovulated when the number of large follicles (≧6.5 mm) fell to less than 3.
A single 2 mL dose of triptorelin gel or vehicle gel was deposited within approximately 1-2 cm posterior to the cervix with a catheter similar to those used for artificial insemination. The dose was delivered using a standard multi-dose applicator attached to the catheter. A new disposable sheath, which surrounds the catheter, was used for each gilt.

gilts [2] = assay: Example 5: estrus observation after triptorelin gel dose groups; settings: all treatments (did not differ among treatments)
Procedure: as §1, §2
For post-treatment estrus detection, gilts were housed in individual pens. Boars were housed in separate rooms, and/or at least 12 m away and downwind. To elicit signs of estrus, a mature boar was walked slowly in the alley in front of the gilts' crates, exposing each test gilt to visual, auditory and olfactory signals from the boar for up to 5 minutes. In keeping with standard practice at commercial farms, while the boar was near the front of the gilt's crate, estrus was tested by an experienced person applying back pressure to the midsection of the gilt combined with side rubbing. Estrus was confirmed when a gilt stood rigidly to the back pressure, with no vocalization and with some indication of an ear reflex. Gilts were not exposed to boars during the first three days after withdrawal of MATRIX® (Day 0 to Day 2). Estrus detection was performed daily on all gilts from Day 3 to Day 7.
A single 2 mL dose of triptorelin gel or vehicle gel was deposited within approximately 1-2 cm posterior to the cervix with a catheter similar to those used for artificial insemination. The dose was delivered using a standard multi-dose applicator attached to the catheter. […]

gilts [3] = assay: Example 2: estrus observation post-MATRIX; settings: older gilts at the first site, all treatments
Procedure: Two hundred ninety-seven (297) gilts were fed MATRIX® as a top-dress for 14 days at the recommended rate of 15 mg/gilt/day. The last feeding of MATRIX® was at 5:30 AM (Day 0). Approximately one hundred gilts were allocated to each of the following treatments: • 1. Group 1, Controls (n=100); MATRIX® treated, but not OvuGel™ treated, inseminated daily during estrus, as is normally practiced (average of 1.9 inseminations per gilt). • 2. Group 2 (n=98); OvuGel™ treated at 6:30 am (+/−1 hr) on Day 5 and inseminated at 2 to 11 hours post-OvuGel™ treatment on Day 5 if expressing estrus. All gilts inseminated once on Day 6, 26 hours (+/−2.5 hrs) post-OvuGel™ treatment, regardless of estrus status. • 3. Group 3 (n=99); OvuGel™ treated at 6:30 am (+/−1 hr) on Day 5 and inseminated once at 2.5 to 9.5 hours post-OvuGel™ treatment on Day 5 and again on Day 6, 26.5 hours (+/−3 hrs) post-OvuGel™ treatment, without regard to estrus on either day.
(§3) Gilts were housed in individual pens. Boars were housed at least 12 m away and downwind. […] To facilitate detection of estrus, a mature boar was walked slowly in the alley in front of the gilt's pen, exposing each gilt to visual, auditory and olfactory signals from the boar for up to 5 minutes. […]

gilts [4] = assay: Example 3: estrus observation post-MATRIX; settings: younger gilts at the second site, all treatments
Procedure: Three hundred twelve (312) gilts were fed MATRIX® as a top-dress for 14 days at the recommended rate of 15 mg/gilt/day. The last feeding of MATRIX® was at 6:30 AM (Day 0). One hundred four gilts were allocated to each of the following treatments: • 1. Group 1, Controls (n=104); MATRIX® treated, but not OvuGel™ treated, inseminated daily during estrus, as is normally practiced at the site (average of 1.8 inseminations per gilt). • 2. Group 2 (n=104); OvuGel™ treated at 7:00 am (+/−1.5 hours) on Day 5 and inseminated at 2 to 4 hours post-OvuGel™ treatment on Day 5 if expressing estrus. All gilts inseminated once on Day 6, 26 hours (+/−2 hrs) post-OvuGel™ treatment, regardless of estrus status. • 3. Group 3 (n=104); OvuGel™ treated at 7:00 am (+/−1.5 hours) on Day 5 and inseminated once at 2 to 4 hours post-OvuGel™ treatment on Day 5 and again on Day 6, 26 hours (+/−2 hrs) post-OvuGel™ treatment, without regard to estrus on either day.
as §3

SMILES: C=CC[C@]1(O)CC[C@H]2[C@@H]3CCC4=CC(=O)CCC4=C3C=C[C@@]21C [MATRIX®, altrenogest]
- gilts ovulated within the experimental period, overall (gilts [1]): 94%
- interval from last feeding of MATRIX to estrus (gilts [2]): 146 ± 22 h
- percentage of gilts which expressed estrus after the last feeding of MATRIX (gilts [2]): 97%
- gilts that first expressed estrus on Day 5 post-MATRIX, average (gilts [3]): 30.1%
- gilts that showed estrus on Day 5 (gilts [4]): 7.4%
